Tests used:
Type in all cases: cell-based, human
[1] = system: YAP, ERα, cyclin D1, Wnt3a, pGSKβ, β-catenin, c-Myc, Bcl-2, c-Yes, p16, p21, MMP2; assay: Immunoblot of Y192-231E mutant expressing MCF7 with WBP2 knockdown; conditions: WBP2 expression silenced in WBP2 Y192-231E stable transfectant
Description: A: Whole cell lysates from vector, WBP2-WT, WBP2-Y192-231E mutant and WBP2-Y192-231F mutant expressing MCF7 or Y192-231E mutant expressing MCF7 with WBP2 knockdown were used for IB analysis with antibodies indicated. B: Vector, WBP2-WT, WBP2-Y192-231E mutant or WBP2-Y192-231F mutant-expressing MCF7 were co-transfected with TOPFlash (top panel) or ERE-Luciferase (bottom panel) reporter construct. For cells co-transfected ERE-luciferase, they were either left alone or stimulated with 50 ng/ml Wnt3a ligand for 16 hrs. TCF/ERα luciferase activities in various conditions were then assayed. **P<0.01, ***P<0.001, Student's t-test (2-tailed). […] Cell numbers were measured. […]
Whole cell lysates from vector, WBP2-WT, WBP2-Y192-231E mutant and WBP2-Y192-231F mutant expressing MCF7 (A) or Y192-231E mutant expressing MCF7 with WBP2 knockdown (B) were used for IB analysis with antibodies indicated. Their expression levels were quantified in three independent experiments and the averages were presented relative to actin. […] TCF(C)/ER[…](D) luciferase activities in various conditions were then assayed and analyzed in relative to untreated vector control. **P<0.01, ***P<0.001, Student's t-test (2-tailed). […] Cell numbers were measured daily and compared in relative to vehicle treated vector-expressing cells on Day 0. […] Cell numbers were measured and compared in relative to vehicle-treated cells. […]

WBP2 = assay: EGF-induced WBP2 tyrosine phosphorylation in HeLa (IP/IB); conditions: HeLa co-transfected with EGFR and WBP2; 50 ng/ml EGF 5 min; 1 hr pre-treatment with 1 μM AZD0530
Description: (§1) A: HeLa were co-transfected with EGFR and V5-tagged WT or individual Y→F mutant of WBP2. 24 hr post-transfection, cells were serum-starved and stimulated with 50 ng/ml EGF for 5 min with/without 1 hr pre-treatment with 10 μM Iressa or 1 μM AZD0530. Whole cell lysates were used for IP/IB analysis with antibodies indicated. B: HeLa were co-transfected with EGFR and V5-tagged WT or individual Y→F mutant of WBP2 in the absence or presence of Src-DN overexpression. C: HeLa were co-transfected with (a) WBP2; (b) WBP2 and EGFR; (c) WBP2 and wild-type (WT) Src; (d) WBP2 and constitutively active (CA) Src; (e) WBP2, EGFR and WT-Src; (f) WBP2, EGFR ad CA-Src; (g) Y192-231F, EGFR and WT-Src. For experiments B and C, 24 hr post-transfection, cells were serum-starved overnight and stimulated with 50 ng/ml EGF for 5 min. Whole cell lysates were used for IP/IB analysis with antibodies indicated. D: HeLa were co-transfected with EGFR and V5-tagged WT or individual Y→F mutant of WBP2. 24 hrpost-transfection, cells were serum-starved and stimulated with 50 ng/ml EGF for 5 min with/without 1 hr pre-treatment with 10 μM Iressa or 1 μM AZD0530. Whole cell lysates were used for IP/IB analysis with antibodies indicated. E: HeLa were co-transfected with EGFR and V5-tagged WT or individual Y→F mutant of WBP2 in the absence or presence of Src-DN-K295M overexpression. F: HeLa were cotransfected with (a) WBP2; (b) WBP2 and EGFR; (c) WBP2 and wild-type (WT) Src; (d) WBP2 and constitutively-active (CA) Src-Y529F; (e) WBP2, EGFR and WT-Src; (f) WBP2, EGFR ad CA-Src; (g) Y192-231F, EGFR and WT-Src. For experiments B and C, 24 hr post-transfection, cells were serum-starved overnight and stimulated with 50 ng/ml EGF for 5 min. Whole cell lysates were used for IP/IB analysis with antibodies indicated. G: MCF7 were co-transfected with V5-tagged WBP2 and either negative control siRNA, c-Yes siRNA or c-Src siRNA. For both experiments, 24 hr post-transfection, cells were serum-starved overnight and stimulated with 50 ng/ml EGF for 5 min. Whole cell lysates were used for IP/IB analysis with antibodies indicated. […]

EGFR = EGFR activation (auto-phosphorylation) in EGF-stimulated HeLa (IB); conditions: 50 ng/ml EGF 5 min, c-Src inhibition, 1 μM AZD0530
Description: as §1, with “overexpression.” for “overexpression. F: HeLa were cotransfected with (a) WBP2; (b) WBP2 and EGFR; (c) WBP2 and wild-type (WT) Src; (d) WBP2 and constitutively-active (CA) Src-Y529F; (e) WBP2, EGFR and WT-Src; (f) WBP2, EGFR ad CA-Src; (g) Y192-231F, EGFR and WT-Src. For experiments B and C, 24 hr post-transfection, cells were serum-starved overnight and stimulated with 50 ng/ml EGF for 5 min. Whole cell lysates were used for IP/IB analysis with antibodies indicated. G: MCF7 were co-transfected with V5-tagged WBP2 and either negative control siRNA, c-Yes siRNA or c-Src siRNA. For both experiments, 24 hr post-transfection, cells were serum-starved overnight and stimulated with 50 ng/ml EGF for 5 min. Whole cell lysates were used for IP/IB analysis with antibodies indicated.”

Compound	expression of c-Yes, p16, p21 and active MMP2 [1]	expressions of YAP, ERα, cyclin D1, Wnt3a, pGSKβ, β-catenin, c-Myc [1]	EGF-induced tyrosine phosphorylation of WBP2 (WBP2)	EGFR activation (EGFR auto-phosphorylation) (EGFR)
5′-AGCAUCCGCUGUCCGAACUCAAUGG-3′ ((5'-AGCAUCCGCUGUCCGAACUCAAUGG-3'; as printed in the source, key not given here) [WBP2 siRNA, small interfering RNA designed to suppress the expression of WBP2]	remained unchanged	suppressed	–	–
CN1CCN(CCOc2cc(OC3CCOCC3)c3c(Nc4c(Cl)ccc5c4OCO5)ncnc3c2)CC1 [AZD0530]	–	–	abolished	significant reduction
